One assay addresses T1, c-Src (Homo sapiens, UniProt P12931).
T1 construct: purchased Reaction Biology Corporation
Kind of assay: RTK in vitro enzymatic assay. The assay is classed as biochemical. The following applies: 20 μM ATP.

Assay [1] concerns acetylation level of α-tubulin, a substrate of HDAC6. Kind of assay: Western blot of acetylated α-tubulin in H2228 cells. The assay is classed as cell-based, human. The following applies: 6 h, 3b 2 µM. An excerpt: (§1) Figure 4. Effect of test compounds on H2228 cells. […] (A) Western blots of phosphorylated tyrosine residue 1640 on ALK as well as acetylated (Ac) α-tubulin and histone H3 with their corresponding total proteins for normalisation. GAPDH was used as a loading control. (B) Quantification of western blotting results using Image J. Error bars indicate ± S.D.E. *p-Value ≤ 0.05, **p-value ≤ 0.01, ***p-value ≤ 0.001.
Treated cells were washed three times with ice-cold phosphate-buffered saline and lysed in lysis buffer containing 100 mM Tris-HCl, 12 mM sodium deoxycholate, 12 mM sodium lauroylsarcosinate, and protease inhibitor cocktail (BioTools). Cells were heated in lysis buffer at 95 °C for 5 min and then the cell membrane was broken up by sonication (Bioruptor). Cellular debris and unbroken cells were removed by centrifugation (12,500 × g for 30 min, 4 °C). Protein concentration was determined using the bicinchoninic acid assay (Thermo). Cell extracts (20 μg) were resolved by 12% sodium dodecyl sulfate-polyacrylamide gel electrophoresis (SDS-PAGE), transferred to PVDF membranes, and probed separately with antibodies for Ac-histone H3, Ac-α-tubulin, histone H3, α-tubulin, HDAC1, HDAC6, HDAC8 and GAPDH. […] Antibody signals were detected using an enhanced chemiluminescence system.
For orientation: A western blot detects proteins with antibodies after separation by electrophoresis.

For the next assay, the target named is T2, ALK L1196M (Homo sapiens, UniProt Q9UM73, L1196M).
T2 construct: purchased Reaction Biology Corporation
Kind of assay: ALK mutant in vitro enzymatic assay. The note with it: 20 μM ATP. The assay is classed as biochemical.

A further assay has as its target T3, c-Met (Homo sapiens, UniProt P08581).
T3 construct: purchased Reaction Biology Corporation
Kind of assay: RTK in vitro enzymatic assay. Format: biochemical. The following applies: 20 μM ATP.

Assay [2] deals with phosphorylation level of Y1604 on ALK. Kind of assay: Western blot of ALK phosphorylation in H2228 cells. The following applies: 6 h, 3b 2 µM, 3c 4 µM. Format: cell-based, human.
From the text: as §1
Treated cells were washed three times with ice-cold phosphate-buffered saline and lysed in lysis buffer containing 100 mM Tris-HCl, 12 mM sodium deoxycholate, 12 mM sodium lauroylsarcosinate, and protease inhibitor cocktail (BioTools). Cells were heated in lysis buffer at 95 °C for 5 min and then the cell membrane was broken up by sonication (Bioruptor). Cellular debris and unbroken cells were removed by centrifugation (12,500 × g for 30 min, 4 °C). Protein concentration was determined using the bicinchoninic acid assay (Thermo). Cell extracts (20 μg) were resolved by 12% sodium dodecyl sulfate-polyacrylamide gel electrophoresis (SDS-PAGE), transferred to PVDF membranes, and probed separately with antibodies for Ac-histone H3, Ac-α-tubulin, histone H3, α-tubulin, HDAC1, HDAC6, HDAC8 and GAPDH. The antibodies of GAPDH, HDAC1, and HDAC8 were purchased from ABclonal and all other antibodies were from Cell Signalling Technology. Antibody signals were detected using an enhanced chemiluminescence system.

For the next assay, the system named is A549. Kind of assay: SRB antiproliferation assay. Format: cell-based. The note with it: Homo sapiens, 48 h, read-out: Antiproliferative activity (IC50) A549. In general terms: Sulforhodamine B stains cellular protein and so reports cell mass.
The target in another assay is T4, ALK G1269A (Homo sapiens, UniProt Q9UM73, G1269A).
T4 construct: purchased Reaction Biology Corporation
Kind of assay: ALK mutant in vitro enzymatic assay. The assay is classed as biochemical. The note with it: 20 μM ATP.

For a further assay, the target named is T5, JAK2 (Homo sapiens, UniProt O60674).
T5 construct: purchased Reaction Biology Corporation
Description: RTK in vitro enzymatic assay. The note with it: 20 μM ATP. The assay is classed as biochemical.

Another assay concerns the target T6, CYP2D6 (Homo sapiens, UniProt P10635).
T6 construct: purchased Reaction Biology Corporation; host or cells: CYP cDNA baculovirus expression systems
Description: CYP450 inhibition assay. Format: in vitro ADME. The note with it: human recombinant enzyme.

A further assay deals with T7, EGFR (Homo sapiens, UniProt P00533).
T7 construct: purchased Reaction Biology Corporation
Description: RTK in vitro enzymatic assay. The assay is classed as biochemical. The note with it: 20 μM ATP.

For the next assay, the target named is T8, CYP1A2 (Homo sapiens, UniProt P05177).
T8 construct: purchased Reaction Biology Corporation; host or cells: CYP cDNA baculovirus expression systems
Description: CYP450 inhibition assay. The note with it: human recombinant enzyme; read-out: IC50 CYP1A2. Format: in vitro ADME.

A further assay has as its target T9, CYP2C19 (Homo sapiens, UniProt P33261).
T9 construct: purchased Reaction Biology Corporation; host or cells: CYP cDNA baculovirus expression systems
Description: CYP450 inhibition assay. The assay is classed as in vitro ADME. The following applies: human recombinant enzyme. On the procedure:
Assays were performed by Reaction Biology Corporation. […] CYP assays used human recombinant CYP1A2, CYP2C9, CYP2C19, CYP2D6, and CYP3A4 expressed in CYP cDNA baculovirus expression systems. […] Substrates used were 3-cyano-7-ethoxycoumarin for CYP1A2, 2C19, and 2D6; Vivid OOMR Substrate for CYP2C9; and Vivid BOMR Substrate for CYP3A4. hERG inhibition assays involved a binding competition between the tested compounds and a fluorescently labelled compound tracer (Predictor hERG Tracer Red) for membrane-bound hERG (Predictor hERG Membrane). E-4031 served as the positive control.

The target in another assay is T10, CYP2C9 (Homo sapiens, UniProt P11712).
T10 construct: purchased Reaction Biology Corporation; host or cells: CYP cDNA baculovirus expression systems
Description: CYP450 inhibition assay. Format: in vitro ADME. The note with it: human recombinant enzyme.

T8 sequence (P05177 whole entry): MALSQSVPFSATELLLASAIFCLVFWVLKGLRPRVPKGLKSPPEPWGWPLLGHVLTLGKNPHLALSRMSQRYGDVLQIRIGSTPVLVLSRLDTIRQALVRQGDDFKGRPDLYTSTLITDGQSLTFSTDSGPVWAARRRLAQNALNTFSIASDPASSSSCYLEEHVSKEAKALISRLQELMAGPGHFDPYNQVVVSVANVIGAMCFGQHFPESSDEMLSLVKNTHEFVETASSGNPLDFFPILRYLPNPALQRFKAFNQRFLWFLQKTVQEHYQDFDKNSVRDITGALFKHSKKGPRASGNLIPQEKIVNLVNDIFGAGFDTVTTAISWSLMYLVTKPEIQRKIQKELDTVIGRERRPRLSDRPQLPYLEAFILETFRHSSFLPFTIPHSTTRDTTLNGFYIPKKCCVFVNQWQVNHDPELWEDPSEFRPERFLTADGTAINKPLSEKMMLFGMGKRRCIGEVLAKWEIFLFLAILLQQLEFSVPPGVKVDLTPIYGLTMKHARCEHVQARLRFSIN
T1 sequence (P12931 whole entry): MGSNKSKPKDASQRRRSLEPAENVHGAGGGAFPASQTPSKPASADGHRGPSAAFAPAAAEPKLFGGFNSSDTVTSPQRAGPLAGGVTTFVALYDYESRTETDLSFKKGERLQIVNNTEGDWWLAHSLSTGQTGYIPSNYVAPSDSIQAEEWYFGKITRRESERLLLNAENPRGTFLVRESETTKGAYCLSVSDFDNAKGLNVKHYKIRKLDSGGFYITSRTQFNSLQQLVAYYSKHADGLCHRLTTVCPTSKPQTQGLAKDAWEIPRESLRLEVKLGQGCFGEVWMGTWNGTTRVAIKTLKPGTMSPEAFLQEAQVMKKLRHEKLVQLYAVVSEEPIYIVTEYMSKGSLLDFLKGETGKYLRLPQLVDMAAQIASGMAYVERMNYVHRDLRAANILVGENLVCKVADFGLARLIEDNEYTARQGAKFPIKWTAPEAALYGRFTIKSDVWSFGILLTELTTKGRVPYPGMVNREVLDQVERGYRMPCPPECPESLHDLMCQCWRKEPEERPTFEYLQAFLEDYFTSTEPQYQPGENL
T9 sequence (P33261 whole entry): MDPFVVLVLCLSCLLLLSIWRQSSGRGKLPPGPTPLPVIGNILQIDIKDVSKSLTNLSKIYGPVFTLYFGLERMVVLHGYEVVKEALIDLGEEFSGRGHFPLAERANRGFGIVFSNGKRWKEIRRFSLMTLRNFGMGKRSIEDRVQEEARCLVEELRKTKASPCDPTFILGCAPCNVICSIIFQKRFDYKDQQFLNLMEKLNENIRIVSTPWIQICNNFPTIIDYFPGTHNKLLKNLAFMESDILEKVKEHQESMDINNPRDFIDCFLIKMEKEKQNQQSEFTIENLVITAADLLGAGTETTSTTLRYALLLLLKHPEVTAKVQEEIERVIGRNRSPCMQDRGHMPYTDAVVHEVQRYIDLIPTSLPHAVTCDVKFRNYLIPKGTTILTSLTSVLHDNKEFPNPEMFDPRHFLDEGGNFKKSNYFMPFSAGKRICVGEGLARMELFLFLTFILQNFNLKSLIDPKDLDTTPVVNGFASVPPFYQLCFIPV
T3 sequence (P08581 25-1390): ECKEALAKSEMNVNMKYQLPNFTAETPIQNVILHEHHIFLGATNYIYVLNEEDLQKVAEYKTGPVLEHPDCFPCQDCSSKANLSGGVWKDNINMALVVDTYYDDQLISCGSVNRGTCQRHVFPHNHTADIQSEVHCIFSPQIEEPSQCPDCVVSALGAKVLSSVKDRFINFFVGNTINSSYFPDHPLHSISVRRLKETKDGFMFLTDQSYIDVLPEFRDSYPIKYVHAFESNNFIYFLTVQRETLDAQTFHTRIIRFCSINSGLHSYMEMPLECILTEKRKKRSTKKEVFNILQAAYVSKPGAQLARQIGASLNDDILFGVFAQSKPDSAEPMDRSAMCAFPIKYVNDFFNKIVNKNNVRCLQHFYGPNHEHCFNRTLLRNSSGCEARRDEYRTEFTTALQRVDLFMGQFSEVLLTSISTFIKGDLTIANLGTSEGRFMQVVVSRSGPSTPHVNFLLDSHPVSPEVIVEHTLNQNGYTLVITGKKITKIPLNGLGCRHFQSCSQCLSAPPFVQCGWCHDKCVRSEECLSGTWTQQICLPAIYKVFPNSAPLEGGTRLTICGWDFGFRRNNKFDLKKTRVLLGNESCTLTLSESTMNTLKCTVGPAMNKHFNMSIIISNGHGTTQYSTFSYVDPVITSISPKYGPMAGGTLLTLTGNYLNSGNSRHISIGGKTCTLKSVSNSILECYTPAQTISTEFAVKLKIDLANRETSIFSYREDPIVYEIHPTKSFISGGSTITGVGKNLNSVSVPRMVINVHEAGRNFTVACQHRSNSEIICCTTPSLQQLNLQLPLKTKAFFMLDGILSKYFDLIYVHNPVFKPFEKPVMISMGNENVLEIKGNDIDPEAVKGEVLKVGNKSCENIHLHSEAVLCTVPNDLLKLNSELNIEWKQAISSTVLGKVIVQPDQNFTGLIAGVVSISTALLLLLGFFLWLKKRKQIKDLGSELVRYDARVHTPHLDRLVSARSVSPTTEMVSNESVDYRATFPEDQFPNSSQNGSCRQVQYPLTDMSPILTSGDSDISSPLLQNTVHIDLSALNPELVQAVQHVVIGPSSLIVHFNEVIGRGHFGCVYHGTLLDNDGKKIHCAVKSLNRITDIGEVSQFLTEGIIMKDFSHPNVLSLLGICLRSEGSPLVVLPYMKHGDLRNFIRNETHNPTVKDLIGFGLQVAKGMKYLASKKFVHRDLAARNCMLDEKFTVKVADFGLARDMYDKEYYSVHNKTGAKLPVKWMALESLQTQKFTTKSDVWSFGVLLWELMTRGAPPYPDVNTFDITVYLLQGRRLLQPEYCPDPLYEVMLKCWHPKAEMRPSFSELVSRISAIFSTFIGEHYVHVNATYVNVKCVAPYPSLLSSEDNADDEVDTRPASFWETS
T6 sequence (P10635 whole entry): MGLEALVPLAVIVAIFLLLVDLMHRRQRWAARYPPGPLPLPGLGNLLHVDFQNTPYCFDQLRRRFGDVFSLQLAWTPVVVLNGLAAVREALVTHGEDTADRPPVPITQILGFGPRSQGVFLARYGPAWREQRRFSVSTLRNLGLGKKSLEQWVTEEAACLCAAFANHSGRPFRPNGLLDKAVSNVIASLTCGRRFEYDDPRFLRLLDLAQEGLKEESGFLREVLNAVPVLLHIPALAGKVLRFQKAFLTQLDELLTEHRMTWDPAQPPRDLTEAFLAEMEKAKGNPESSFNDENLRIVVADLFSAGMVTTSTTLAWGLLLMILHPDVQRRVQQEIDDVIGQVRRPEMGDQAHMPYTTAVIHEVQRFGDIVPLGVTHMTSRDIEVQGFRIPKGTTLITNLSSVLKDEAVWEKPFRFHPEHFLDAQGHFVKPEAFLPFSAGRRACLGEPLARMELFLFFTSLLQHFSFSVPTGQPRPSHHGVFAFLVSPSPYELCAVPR
T2 sequence (Q9UM73 19-1620 L1196M): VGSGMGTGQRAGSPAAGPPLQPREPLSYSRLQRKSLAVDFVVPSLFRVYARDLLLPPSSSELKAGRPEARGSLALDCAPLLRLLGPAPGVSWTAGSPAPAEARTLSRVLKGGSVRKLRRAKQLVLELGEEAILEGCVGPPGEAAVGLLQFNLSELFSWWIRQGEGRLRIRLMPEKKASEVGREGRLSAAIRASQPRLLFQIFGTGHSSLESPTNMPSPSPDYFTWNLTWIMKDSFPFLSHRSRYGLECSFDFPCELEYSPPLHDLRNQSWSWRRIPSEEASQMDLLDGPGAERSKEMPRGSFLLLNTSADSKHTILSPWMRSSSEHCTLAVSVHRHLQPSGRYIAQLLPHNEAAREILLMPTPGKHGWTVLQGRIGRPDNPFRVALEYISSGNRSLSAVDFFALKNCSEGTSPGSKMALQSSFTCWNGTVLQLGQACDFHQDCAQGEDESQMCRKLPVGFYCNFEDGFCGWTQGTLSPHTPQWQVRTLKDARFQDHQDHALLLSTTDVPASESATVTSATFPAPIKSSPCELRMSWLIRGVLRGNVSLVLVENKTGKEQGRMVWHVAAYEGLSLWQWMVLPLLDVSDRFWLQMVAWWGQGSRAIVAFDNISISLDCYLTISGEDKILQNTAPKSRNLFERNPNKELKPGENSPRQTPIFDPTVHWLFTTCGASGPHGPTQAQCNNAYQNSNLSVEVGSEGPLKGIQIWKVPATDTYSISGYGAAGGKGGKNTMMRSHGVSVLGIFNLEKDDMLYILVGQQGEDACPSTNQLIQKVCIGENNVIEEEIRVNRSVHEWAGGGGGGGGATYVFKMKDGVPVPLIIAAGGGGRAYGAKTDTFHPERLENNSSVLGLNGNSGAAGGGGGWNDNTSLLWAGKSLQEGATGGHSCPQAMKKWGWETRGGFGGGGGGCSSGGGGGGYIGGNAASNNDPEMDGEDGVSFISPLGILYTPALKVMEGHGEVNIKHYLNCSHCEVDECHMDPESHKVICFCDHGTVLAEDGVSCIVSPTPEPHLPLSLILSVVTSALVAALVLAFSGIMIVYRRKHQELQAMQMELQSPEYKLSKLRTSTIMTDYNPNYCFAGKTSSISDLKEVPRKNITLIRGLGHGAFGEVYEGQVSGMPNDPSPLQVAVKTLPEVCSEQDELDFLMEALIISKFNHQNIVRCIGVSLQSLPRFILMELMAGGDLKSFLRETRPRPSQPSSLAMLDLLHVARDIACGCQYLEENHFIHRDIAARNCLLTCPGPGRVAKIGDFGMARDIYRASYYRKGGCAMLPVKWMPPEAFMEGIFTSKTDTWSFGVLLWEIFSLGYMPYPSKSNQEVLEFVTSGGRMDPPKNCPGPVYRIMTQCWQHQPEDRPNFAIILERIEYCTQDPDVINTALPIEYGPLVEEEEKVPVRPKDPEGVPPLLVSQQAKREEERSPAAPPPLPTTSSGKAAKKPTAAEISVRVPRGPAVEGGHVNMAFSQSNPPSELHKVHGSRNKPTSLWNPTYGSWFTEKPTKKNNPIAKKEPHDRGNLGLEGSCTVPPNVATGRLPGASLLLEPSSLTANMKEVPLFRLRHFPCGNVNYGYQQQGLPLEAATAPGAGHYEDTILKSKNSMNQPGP
T4 sequence (Q9UM73 19-1620 G1269A): as the sequence (Q9UM73 19-1620 L1196M) above, with M1178L, G1251A counted along it

The term IC50 denotes the point on the concentration scale where inhibition reaches its midpoint. Turning to `CC(C)NC(=O)C1CCC(n2c(=NC(=O)c3ccccc3)[nH]c3cc(C=CC(=O)NO)ccc32)CC1` [Compound 3b, (E)-N-(5-((E)-3-(Hydroxyamino)-3-oxoprop-1-en-1-yl)-1-((1S,4S)-4-(isopropylcarbamoyl)cyclohexyl)-1H-benzo[d]imidazol-2(3H)-ylidene)benzamide], the IC50 against c-Src was 3.38 µM; on ALK L1196M, 0.0049 µM; at c-Met it was over 10 µM; in the assay on A549 it was 0.33 ± 0.03 µM; against ALK G1269A, 0.05 µM; against JAK2, over 10 µM. Besides, the IC50 at CYP2D6 was over 10 µM; on EGFR it was over 10 µM; on CYP1A2, 12.7 µM; on CYP2C19, 7.86 µM; on CYP2C9 it was 2.65 µM. In addition, the “acetylation level of α-tubulin” value in assay [1] is “obviously elevated”. Besides, in assay [2], the “phosphorylation level of Y1604 on ALK” value was “significantly decreased”.

Source of the values: publication PMC10930102 (Journal of Enzyme Inhibition and Medicinal Chemistry, 2024).
